In patent US6747023B1 (Daiichi Pharmaceutical Co., Ltd., priority 1998, dated 2004):

Legend:
human Factor Xa = human Factor Xa (Homo sapiens, UniProt P00742); assay: Test of oral administration: anti-FXa activity in the plasma; assay type: in vivo, Wistar male rat; details: rat, one hour after the oral administration of 30 mg/kg
Protocol: (§1) A sample was dissolved or suspended in a 0.5% (w/v) methyl cellulose solution and the resulting solution or suspension was orally administered (10 ml/kg) to a 8 to 11 week-old rat (Wistar male rat (Nippon SLC Co., Ltd.)) which had been fasted overnight. After administration of the sample, the blood to which 1/10 part by weight of 3.13% (w/v) sodium citrate had been added was collected from the cervical vein under anesthesia with halothane. The rat was awakened except during the blood collection. Feeding was re-started 6 hours after the blood collection. From each blood sample, the plasma was separated by centrifugal separation and anti-FXa activity in the blood and prothrombin time extending action were measured.
In a 96-well plate, 5 μl of the plasma was poured in portions, followed by the addition of 55 μl of a 8:1:2 mixture of 100 mM tris.200 mM sodium chloride.0.2% BSA (pH 7.4) buffer, water and 0.1 U/ml human Factor Xa solution (dissolved in and diluted with a measuring buffer) and 40 μl of 750 μM S-2222. After stirring for 10 seconds in a plate mixer, an increase (mOD/min) of the absorbance at 405 nm was measured at room temperature. The inhibitory ratio was calculated as follows:
An inhibitory ratio (%)=(1−OD of sample÷OD of control on average relative to blood-collecting time of sample)×100

[1] = system: prothrombin time of the plasma; assay: Test of oral administration: coagulation extending action (prothrombin time); assay type: in vivo, Wistar male rat; details: rat, oral administration of 30 mg/kg
Protocol: as §1
To 20 μl of the plasma, 40 μl of cynplastin (Organon Teknika/USA) was added and the coagulation time was measured. The ratio of the prothrombin time after the administration of the sample relative to the prothrombin time before the administration of the sample was designated as an index of the coagulation extending action.

[2] = system: tissue thromboplastin-derived DIC; assay: Anti-thrombus effects in a tissue thromboplastin-derived rat DIC model; assay type: in vivo; details: oral 30 mg/kg, tissue thromboplastin one hour after the sample
Protocol: A rat was anesthetized with halothane. After the collection of the blood (for measurement of the number of platelets, anti-FXa activity and TAT) from its cervical vein by using 1/10 part by weight of 3.13% (w/v) sodium citrate, the sample was administered orally. At an appropriate time after the administration, the rat was intraperitoneally anesthetized ([…]) with Nembutal (50 mg/ml pentobarbital sodium, Abott Laboratories), followed by intravenous drip of 0.2 U/ml of tissue thromboplastin (Thromboplastin C plus, Dade Diagnostics of P. R. Inc.,) from the femoral vein for one minute at a rate of 2.5 to 3.0 ml/kg/min. The blood was collected (for measuring the number of platelets and anti-FXa activity) from the cervical vein 10 minutes after the intravenous drip and the blood was collected (for measuring TAT) from the cervical vein 20 minutes after the blood collection. The number of platelets, anti-FXa activity in the plasma and TAT concentration of each blood sample were measured. The number of the platelets was measured by an automatic cytometer, while the anti-FXa activity in the plasma was measured in a similar manner to that described in Test 4.
For the measurement of TAT (Thrombin-anti Thrombin=complex), EnzygnostR TAT micro kit (Boering Verke) was employed.

human Factor Xa, sequence (P00742 235-488 limits assumed): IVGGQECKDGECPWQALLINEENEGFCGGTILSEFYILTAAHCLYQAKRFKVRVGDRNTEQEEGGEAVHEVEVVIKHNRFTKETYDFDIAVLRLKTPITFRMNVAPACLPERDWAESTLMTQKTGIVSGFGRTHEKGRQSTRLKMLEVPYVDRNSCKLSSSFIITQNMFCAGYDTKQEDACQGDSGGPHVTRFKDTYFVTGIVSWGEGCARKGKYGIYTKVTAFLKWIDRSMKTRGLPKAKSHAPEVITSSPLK
human Factor Xa, sequence (P00742 41-179 partner limits assumed): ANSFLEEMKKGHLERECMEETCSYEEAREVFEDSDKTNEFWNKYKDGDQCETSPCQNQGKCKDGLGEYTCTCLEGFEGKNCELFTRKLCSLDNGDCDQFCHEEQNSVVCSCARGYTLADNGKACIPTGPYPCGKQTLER

CC1Cc2nc(C(=O)N3CCN(S(=O)(=O)c4ccc5cc(Cl)ccc5c4)CC3C(N)=O)sc2CN1.Cl (centres unmarked) [Example B-36, 2-Carbamoyl-4-[(6-chloronaphthalen-2-yl)sulfonyl]-1-[(6-methyl-4,5,6,7-tetrahydrothiazolo[5,4-c]pyridin-2-yl)carbonyl]piperazine hydrochloride]
anti-FXa activity in the plasma (human Factor Xa): 68% | thrombin time (result in words) [1]: extended the thrombin time | anti-FXa action in the plasma (result in words) [2]: apparent anti-FXa action in the plasma was recognized | decrease in the number of the platelets [2]: suppressed | increase in the TAT concentration [2]: suppressed
